Reference: US12043845B2, “Methods of cell culture” (Polpharma Biologics S.A., priority 2017, dated 2024)

Legend:
[1] = tested on: CHO cells producing natalizumab; test: Cation exchange chromatography of acidic and basic species of natalizumab from CHO cells cultured with citrulline; format: cell-based, Chinese hamster; conditions: increasing concentrations of citrulline (8, 12 g/l), 14 days
Protocol: Cell lineC4 expressing natalizumab was cultured in 15 ml AMBR microbioreactors. Dissolved oxygen tension (DOT) was controlled at 40% and the temperature maintained at 36.8° C. during the first 4 days with a temperature shift to 33° C. on day 5 for the rest of the cultivation time. The targeted viable cell concentration at inoculation was 1.0×10^6±0.1 viable cells mL^−1. The post inoculation volume of the production stage bioreactors was set to 15 mL in the microbioreactors of the AMBR system. The pH set point was 7.0±0.1. The basal medium was PolCHO-P CD (available from GE healthcare). From day 3 on, 4.2% (v/v) of PolCHO feed A (available from GE healthcare) per day was added as a bolus. If required, a D-glucose solution was used to increase glucose concentration in the broth to 4 g L^−1. In addition, 0.42% (v/v) of PolCHO feed B (available from GE healthcare) was added every day as a bolus. […]
The separation was carried out by Cation Exchange High Performance Liquid Chromatography on the UPLC H-Class Bio System using UV detection under Empower™ Software control. […] The column temperature was 40° C. and elution was monitored at 220 nm.
(§1) For data evaluation the Waters Empower 3 software was used. The sample composition was determined by detecting peaks based on their retention time and the relative proportions of each peak were calculated from the peak areas. […]

[2] = tested on: CHO cells producing ustekinumab; test: Specific production rate (Qp) for ustekinumab; format: cell-based, Chinese hamster; conditions: citrulline added, vs control without citrulline (FIG. 3)
Protocol: The stirred tank reactors (STRs) were inoculated with the cell line C20 or with the cell line C69 in pre-heated production medium (PolCHO-P, available from GE healthcare, Catalogue Number G3258.3050), at a target density of 1.0*10^6 viable cells (vc) mL^−1. From day 3 on, 4.2% (v/v) of feed A (available from GE healthcare, Catalogue Number G3259.3010) per day was added at a continuous rate over 24 hours (equivalent to 2.9 g glucose L^−1 day^−1). If required, a D-glucose solution was used to increase glucose concentration in the broth to 4 g L^−1. In addition, 0.42% (v/v) of feed B (available from GE healthcare, Catalogue Number G3260.0001) was added every day as a bolus. […]
b) In another set of experiments cell line C20 expressing ustekinumab was selected. […] Every day before feeding, glucose concentration was measured. […]
(§2) The Octet system performs label-free quantitation of antibodies, proteins, peptides, DNA and other biomolecules and provides kinetic characterization of biomolecular binding interactions. […] The binding rates of the test samples are measured and interpolated from a standard curve generated from a similar or equivalent protein to determine the concentration of the protein. […]

[3] = tested on: CHO cells producing ustekinumab; test: Cation exchange chromatography of acidic, main and basic species of ustekinumab from CHO cells cultured with citrulline; format: cell-based, Chinese hamster
Protocol: (§3) The stirred tank reactors (STRs) were inoculated with the cell line C20 or with the cell line C69 in pre-heated production medium (PolCHO-P, available from GE healthcare, Catalogue Number G3258.3050), at a target density of 1.0*10^6 viable cells (vc) mL^−1. From day 3 on, 4.2% (v/v) of feed A (available from GE healthcare, Catalogue Number G3259.3010) per day was added at a continuous rate over 24 hours (equivalent to 2.9 g glucose L^−1 day^−1). If required, a D-glucose solution was used to increase glucose concentration in the broth to 4 g L^−1. In addition, 0.42% (v/v) of feed B (available from GE healthcare, Catalogue Number G3260.0001) was added every day as a bolus. For cell line C20 different concentrations of citrulline (5 g/l, 8 g/l and 12 g/l) were added to the medium and to feed A. For cell line C69 10 g/l citrulline in combination with 40 mM sucrose were added to the medium and to feed A.
Additional samples of approximately 30 mL were collected on days 6, 10 and 14, centrifuged and stored in −80° C. for product quality analysis. […]
as §1

[4] = tested on: CHO cells producing omalizumab; test: Specific production rate (Qp) for omalizumab; format: cell-based, Chinese hamster; conditions: citrulline added, vs control without citrulline (FIG. 8)
Protocol: CHO cell line 230×846 expressing the anti-IgE antibody omalizumab was selected for this experiment. The cell line was thawed and cultured in 25 mL shake flasks (SFs) containing PowerCHO-2 CD medium (Lonza) with 4 mM L-glutamine and 1% (v/v) Fe-citrate solution. Subsequently, the cells were expanded in SFs with increasing volume as seed train. 12 SFs were inoculated at a concentration of 0.5·10^6 vc mL^−1. The SFs were inoculated in 25 mL PowerCHO-2-CD medium containing L-glutamine and Fe-citrate and placed on a shaking plateau in an incubator at 37° C. On the day of inoculation, 2% (v/v) of BC feed and 0.2% (v/v) of cys/tyr feed was given. The glucose concentration was measured every day before feeding. From day 3 on, feeding was done based on glucose consumption of the previous day, aiming for a glucose concentration of 3.5 g/L. Different concentrations of citrulline were added to the medium and BC feed.
as §2

[5] = tested on: CHO cells; test: Citrulline concentration in culture medium during fermentation (UPLC-MS); format: in vitro ADME, Chinese hamster; conditions: cell line C69, stirred tank reactor, 10 g/l citrulline, days 8, 11, 13, 14
Protocol: Additional samples of approximately 30 mL were collected on days 6, 10 and 14, centrifuged and stored in −80° C. for product quality analysis. For the experiments with cell line C69 samples were also taken to determine the concentration of citrulline at different time points (days 8, 11, 13 and 14) during the bioreactor run.
To determine if citulline can be metabolised by CHO cells clarified samples were taken from the stirred tank reactor run with clone C69. Quantification of the concentration of citrulline during the culture was standardized using a 10 g/l citulline solution in WFI and the PolCHO medium was used as a negative control.
About 1 mL of culture medium was centrifuged in an Eppendorf centrifuge at 15000 rpm and at 4° C. for 10 minutes. […]
Using reference sample, the molecular mass of citrulline was confirmed by UPLC-MS to be 175.08 Da. The concentration of citrulline in the reference sample was 55.84 mM as determined by qNMR. The citrulline concentrations in culture medium samples of days 8, 11, 13 and 14 were determined by UPLC-MS analysis after appropriate dilution of the samples and by using external calibration lines prepared using the reference sample. No citrulline was detected in POLCHO medium (see FIG. 11).

[6] = tested on: CHO cells producing ustekinumab; test: Cell diameter by LUNA cell counter; format: cell-based, Chinese hamster; conditions: citrulline added, vs control without citrulline (FIG. 2)
Protocol: as §3
b) In another set of experiments cell line C20 expressing ustekinumab was selected. This cell line was thawed and cultured in 25 mL shake flasks (SFs) containing PolCHO-P CD (GE Healthcare) medium with methotrexate and geneticin. […] Every day before feeding, glucose concentration was measured. […]
The viable cell concentration, viability and cell size were determined using a LUNA™ cell counter with the following protocol: […]

[7] = tested on: CHO cells producing ustekinumab; test: Rapifluor-MS released N-glycan analysis of ustekinumab; format: cell-based, Chinese hamster; conditions: 5 g/l and 8 g/l citrulline, 12 or 14 days, vs control
Protocol: The shake flasks were inoculated in 25 mL Actipro medium (available from GE healthcare, Catalogue number SH31039.01) and placed on a shaking plateau in an incubator at 37° C. On the day of inoculation, 2% (v/v) of Cell boost 7A (available from GE healthcare, Catalogue number SH31026.02) and 0.2% (v/v) of Cell boost 7B (available from GE healthcare, Catalogue number SH31027.01) was given. From day 3 on, a flat feed was given of 4% (v/v) of Cell boost per day. Every day before feeding, glucose concentration was measured. If required, a D-glucose solution was used to increase glucose concentration in the broth to 4 g L^−1, before feeding. In addition, 0.4% (v/v) of Cell boost 7B was added every day as a bolus. Different concentrations of citrulline (5 g/l and 8 g/l) were added to the medium and to Cell boost 7A. At day 5 after inoculating the cells into the cell culture medium the temperature of the cell culture was reduced to 31° C.±0.2° C.
The N-glycan composition and relative distribution thereof was analyzed using the Rapifluor MS N-Glycan Kit purchased from Waters, using the manufacturer's instructions. It comprises denaturation and release of N-linked glycans by PNGase F from Protein A purified material. The released glycans are then labeled with the proprietary Rapifluor label, which contains a fluorescent moiety and a proton capturing moiety. […]

## NC(=O)NCCC[C@H](N)C(=O)O [citrulline]
[1]
  sum of acidic peaks of natalizumab: decreased dose-dependently
  sum of basic peaks of natalizumab: increased dose-dependently
[2]
  specific production rate Qp for ustekinumab: increases
[3]; 12 g L^-1 citrulline, day 14, control 11%
  basic peaks of ustekinumab: 22%
[3]; increasing concentrations of citrulline (5, 8, 12 g/l), day 14, vs control
  acidic 2 peaks of ustekinumab: decreased dose-dependently
[4]
  specific production rate Qp for omalizumab: same increase
[5]
  concentration of citrulline during the fermentation: does not change significantly
[6]
  diameter of the cells: increases
[7]
  G0F, G1F, G1'F, G2F and sum of sialylated species: no differences
